Experimental data taken from patent US12409158B2, “Combination therapy for treating cancer” (GONGWIN BIOPHARM CO., LTD, priority 2022, dated 2025).

Columns and labels:
H520 cells [1] = test: H520 lung squamous cell carcinoma xenograft, repeat experiment; type: in vivo, nude-BALB/c mice; details: compared to control, FIGS. 13A, 13B
Experimental: (§1) Male nude-BALB/c mice at six-weeks of age were obtained from National Laboratory Animal Breeding and Research Center, Taipei, Taiwan. Mice were housed in each cage and provided them with sterile food and water. The mice were maintained under a constant temperature (22±2° C.) and relative humidity (55±5%), with a 12:12 h light: dark cycle. The Institutional Animal Care and Use Committee (IACUC) at the National […] University (IACUC Approval No. 110003) reviewed and approved the study protocol, in which procedures were in accordance with the Guidelines for the Care and Use of Laboratory Animals published by the Taiwanese Ministry of Health and Welfare. Human non-small cell lung carcinoma cell line (H520) was purchased from ATCC Cell Bank. H520 cells were incubated in RPMI 1640 medium (cat no. 61870044; Gibco; Thermo Fisher, Inc) supplemented with 10% fetal bovine serum in an environmental containing 5% CO2 at 37° C. The experimental treatments were commenced after the implanted H520 cells had formed a detectable tumor mass, which was assessed on day 7 after implantation. […] The growth of the tumors was assessed every seven days by measuring their largest and smallest diameters, and calculated their volume according to the following formula: […] […]

H520 cells [2] = test: H520 lung squamous cell carcinoma xenograft, first experiment; type: in vivo, nude-BALB/c mice
Experimental: as §1

Ki67 = test: IHC analysis of Ki67 in M5 tumors; type: in vivo, BALB/c nude mice; details: FIGS. 9A and 9B
A549 cells = test: A549 lung adenocarcinoma xenograft; type: in vivo, BALB/c nude mice
Experimental: A549 cell line was purchased from ATCC Cell Bank and was cultured in F-12K medium (cat no. ATCC 30-2004) plus 10% fetal bovine serum, at 37° C., 5% CO2. For experiments, cells were grown to 90% confluence. The experimental treatments were commenced after the implanted A549 cells had formed a detectable tumor mass, which was assessed on day 7 after implantation. Briefly, the mice were anesthetized via intraperitoneal injection of Zoletil (Virbac Taiwan, Taipei, Taiwan), and then subcutaneously injected 100 μl of cell suspension containing 6*10^6 viable A549 cells into right posterior leg. […] All treatments were administered via intraperitoneal injection (IP) or intratumoral injection (IT). The control group (Group 1) received normal saline daily, while the other three treatment groups received their corresponding treatments B.I.W (twice a week) or Q.W (once weekly). The PTS100 group (Group 2) received 330 mg/kg of PTS100 (Gongwin Biopharm Holding, Taipei, Taiwan). The normal saline+pemetrexed+Cisplatin group (Group 3) received 100 mg/kg of pemetrexed and 2 mg/kg of cisplatin. The pemetrexed+cisplatin+PTS100 (Group 4, also known as the “combination”) received 100 mg/kg of pemetrexed, 2 mg/kg of cisplatin, and 330 mg/kg of PTS 100. In group 4, when administering in combination, pemetrexed, cisplatin, PTS100 are given at different days, for example, PTS is given at Monday and Thursday, and pemetrexed+cisplatin is given at Wednesday. See Table 4 for the experimental design of the corresponding treatments, dose, injection site, concentration, volume, number of subjects and dosing frequency. The dosage of pemetrexed, cisplatin, and PTS100 were selected such that these drug affects apoptosis, invasion, metastasis, angiogenesis, and the growth signal mechanisms in […] implanted in mice. The growth of the tumors was assessed every seven days by measuring their largest and smallest diameters, and calculated their volume according to the following formula: […] [table]

ZEB1 = test: Quantitative PCR of ZEB1 mRNA in M5 tumors; type: in vivo, BALB/c nude mice; details: FIG. 10
S6K1 = test: Western blot of S6K1 in M5 tumors; type: in vivo, BALB/c nude mice; details: FIG. 7A

In the case of `Cc1ccc(S(N)(=O)=O)cc1` [PTS, p-Toluenesulfonamide], the “tumor volume / tumor burden” value (H520 cells [1]) was “slight decrease”, the tumor growth inhibition (H520 cells [2]; PTS100 330 mg/kg IT B.I.W., gemcitabine 160 mg/kg and cisplatin 3 mg/kg IP QW) was 39.2% and the “tumor volume / tumor burden” value (H520 cells [2]; compared to control, FIG. 12A) was “slight decrease”. The Ki67 expression (Ki67) was “suppressed”, the “Inhibition (%) (tumor growth inhibition)” value (A549 cells; PTS100 330 mg/kg IT B.I.W., pemetrexed 100 mg/kg and cisplatin 2 mg/kg IP QW) was 84.13% and the “tumor volume / tumor burden” value (A549 cells; compared to control, FIG. 14A) was “slight decrease”. The tumor weight (A549 cells; compared to the control, FIG. 14B) was “significant decrease”, the “ZEB1 mRNA expression” value (ZEB1) was “downregulation” and the “expression of S6K1” value (S6K1) was “downregulated”.
